Experiments:
CB2-M293^7.47T&S47^1.46T = CB2-M293^7.47T&S47^1.46T (Homo sapiens, UniProt P34972, M293T/S47T); test: GloSensor cAMP assay, CB2 double mutant; assay type: cell-based
CB2^ECL2/CB1^other = test: GloSensor cAMP assay, chimeric construct; assay type: cell-based, human; conditions: vs wild-type CB1
CB1 D176^2.63N = CB1 D176^2.63N (Homo sapiens, UniProt P21554, D176N)
CB1^ECL2/CB2^other = test: GloSensor cAMP assay, chimeric construct; assay type: cell-based, human; conditions: vs wild-type CB2

Sequence of CB1 D176^2.63N (P21554 whole entry D176N): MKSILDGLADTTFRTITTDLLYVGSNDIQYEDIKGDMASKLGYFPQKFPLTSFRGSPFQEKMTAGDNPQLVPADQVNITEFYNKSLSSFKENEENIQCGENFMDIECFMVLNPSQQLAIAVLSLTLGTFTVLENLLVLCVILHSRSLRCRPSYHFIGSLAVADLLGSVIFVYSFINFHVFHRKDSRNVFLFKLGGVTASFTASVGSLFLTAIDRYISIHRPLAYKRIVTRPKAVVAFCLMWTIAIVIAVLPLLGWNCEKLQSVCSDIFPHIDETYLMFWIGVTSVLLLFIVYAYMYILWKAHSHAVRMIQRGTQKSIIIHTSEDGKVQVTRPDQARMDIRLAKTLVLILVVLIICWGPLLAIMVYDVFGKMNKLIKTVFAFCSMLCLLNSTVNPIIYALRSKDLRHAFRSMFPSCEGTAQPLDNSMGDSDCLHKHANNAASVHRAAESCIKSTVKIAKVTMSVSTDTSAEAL
Sequence of CB2-M293^7.47T&S47^1.46T (P34972 whole entry S47T/M293T): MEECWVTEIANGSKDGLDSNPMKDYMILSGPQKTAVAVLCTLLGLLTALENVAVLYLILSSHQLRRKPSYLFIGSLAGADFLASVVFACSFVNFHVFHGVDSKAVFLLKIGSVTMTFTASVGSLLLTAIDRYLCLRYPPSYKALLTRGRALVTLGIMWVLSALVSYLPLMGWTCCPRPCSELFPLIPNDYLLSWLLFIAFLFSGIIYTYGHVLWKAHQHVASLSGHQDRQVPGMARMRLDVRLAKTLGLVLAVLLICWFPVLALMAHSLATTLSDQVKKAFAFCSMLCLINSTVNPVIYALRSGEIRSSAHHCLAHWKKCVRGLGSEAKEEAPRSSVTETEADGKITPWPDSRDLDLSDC

CCCCCCC(C)(C)c1ccc([C@@H]2C[C@H](O)CC[C@H]2CCCO)c(O)c1 [CP55,940]
activity vs wild-type CB2 (CB2-M293^7.47T&S47^1.46T): remained essentially unchanged
activation of CB1 receptor containing the CB2 ECL2 loop (CB2^ECL2/CB1^other): same potency as wild-type CB1
activity vs wild-type CB1 (CB1 D176^2.63N): significantly reduces the activity
effect of ECL2 replacement on EC50 (CB1^ECL2/CB2^other): no effect on the EC50
